Measurements as given in patent US7807678B2, “Peptidomimetics of biologically active metallopeptides” (Palatin Technologies, Inc., priority 2001, dated 2010).

Columns and labels:
MC4-R = MC4-R (Homo sapiens, UniProt P32245); test: Competitive inhibition binding assay, 125I-NDP-α-MSH, MC4-R; design: expressed in transfected cells; conditions: for Inhibition at 1 μM MC4-R: 1 μM compound, inhibition of 125I-NDP-α-MSH binding, mean of triplicates, results less than 0% reported as 0%
Description: (§1) The competitive inhibition binding assay was conducted using membranes prepared from hMC3-R, hMC4-R, hMC5-R, and B-16 mouse melanoma cells (containing MC1-R) using 0.4 nM ^125I-NDP-α-MSH (New England Nuclear, Boston, Mass., USA) in 50 mM HEPES buffer containing 1 mM MgCl2, 2 mM CaCl2, and 5 mM KCl, at pH 7.2. The assay tube also contained a chosen concentration of the test peptidomimetic of this invention, generally 1 μM, for determining its efficacy in inhibiting the binding of ^125I-NDP-α-MSH to its receptor.
(§2) Incubation was for 90 minutes at room temperature, after which the assay mixture was filtered and the membranes washed three times with ice cold buffer. The filter was dried and counted in a gamma counter for remaining radioactivity bound to the membranes. 100% specific binding was defined as the difference in radioactivity (cpm) bound to cell membranes in the absence and presence of 1 μM α-MSH. […] Each assay was conducted in triplicate and the actual mean values are described.

MC5-R = MC5-R (Homo sapiens, UniProt P33032); test: Competitive inhibition binding assay, 125I-NDP-α-MSH, MC5-R; design: expressed in transfected cells; conditions: for Inhibition at 1 μM MC5-R: 1 μM compound, inhibition of 125I-NDP-α-MSH binding, mean of triplicates, results less than 0% reported as 0%
Description: as §1, §2

MC3-R = MC3-R (Homo sapiens, UniProt P41968); test: Competitive inhibition binding assay, 125I-NDP-α-MSH, MC3-R; design: expressed in transfected cells; conditions: for Inhibition at 1 μM MC3-R: 1 μM compound, inhibition of 125I-NDP-α-MSH binding, mean of triplicates, results less than 0% reported as 0%
Description: as §1, §2

[1] = biological target: T1, MC1-R (B-16 mouse melanoma cells) (Mus musculus, UniProt Q01727); test: Competitive inhibition binding assay, 125I-NDP-α-MSH, MC1-R; conditions: for Inhibition at 1 μM MC1-R: 1 μM compound, inhibition of 125I-NDP-α-MSH binding, mean of triplicates, results less than 0% reported as 0%
T1 construct: B-16 mouse melanoma cells (containing MC1-R); endogenous in cells; host or cells: B-16 mouse melanoma cells
Description: as §1, §2

MC3-R, sequence (P41968 whole entry): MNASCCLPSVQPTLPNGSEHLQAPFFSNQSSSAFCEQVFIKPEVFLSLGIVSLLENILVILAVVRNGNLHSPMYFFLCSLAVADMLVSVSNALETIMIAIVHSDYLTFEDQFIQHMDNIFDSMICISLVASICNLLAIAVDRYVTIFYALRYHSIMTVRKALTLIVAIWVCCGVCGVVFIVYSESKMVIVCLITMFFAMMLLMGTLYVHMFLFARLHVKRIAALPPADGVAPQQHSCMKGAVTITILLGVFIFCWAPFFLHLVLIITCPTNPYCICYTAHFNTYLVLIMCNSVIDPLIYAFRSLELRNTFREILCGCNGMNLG
T1 sequence (Q01727 whole entry): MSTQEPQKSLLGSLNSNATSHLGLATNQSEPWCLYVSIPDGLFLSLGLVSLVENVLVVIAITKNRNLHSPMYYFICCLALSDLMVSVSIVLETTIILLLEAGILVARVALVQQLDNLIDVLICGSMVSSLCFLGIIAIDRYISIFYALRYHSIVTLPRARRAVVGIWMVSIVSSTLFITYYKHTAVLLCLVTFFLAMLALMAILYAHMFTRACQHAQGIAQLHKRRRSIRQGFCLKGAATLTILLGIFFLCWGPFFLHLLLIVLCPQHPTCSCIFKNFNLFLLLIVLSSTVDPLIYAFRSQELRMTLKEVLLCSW
MC5-R, sequence (P33032 whole entry): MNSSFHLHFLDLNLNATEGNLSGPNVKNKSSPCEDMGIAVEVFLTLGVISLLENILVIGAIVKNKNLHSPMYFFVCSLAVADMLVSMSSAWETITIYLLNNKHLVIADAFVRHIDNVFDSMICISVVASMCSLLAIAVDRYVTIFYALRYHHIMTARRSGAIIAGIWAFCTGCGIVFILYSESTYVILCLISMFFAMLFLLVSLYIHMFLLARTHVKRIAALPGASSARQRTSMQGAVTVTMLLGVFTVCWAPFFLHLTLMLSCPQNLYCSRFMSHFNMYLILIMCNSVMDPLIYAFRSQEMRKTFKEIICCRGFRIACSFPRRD
MC4-R, sequence (P32245 whole entry): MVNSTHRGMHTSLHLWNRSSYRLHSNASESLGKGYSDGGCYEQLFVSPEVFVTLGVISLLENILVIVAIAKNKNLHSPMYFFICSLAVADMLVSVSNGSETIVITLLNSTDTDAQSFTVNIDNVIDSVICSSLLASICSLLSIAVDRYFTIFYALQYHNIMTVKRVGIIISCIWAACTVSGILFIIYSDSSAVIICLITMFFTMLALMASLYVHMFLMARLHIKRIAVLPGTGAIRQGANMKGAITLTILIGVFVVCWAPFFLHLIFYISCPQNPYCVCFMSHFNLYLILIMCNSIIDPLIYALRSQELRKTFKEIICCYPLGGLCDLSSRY

Compound	Inhibition at 1 μM MC4-R (MC4-R) [%]	Inhibition at 1 μM MC5-R (MC5-R) [%]	Inhibition at 1 μM MC3-R (MC3-R) [%]	Inhibition at 1 μM MC1-R [1] [%]	inhibition at 1 µM (MC4-R) [%]	inhibition at 1 µM (MC5-R) [%]	inhibition at 1 µM (MC3-R) [%]	inhibition at 1 µM [1] [%]
N=C(N)NCCC[C@H]1C(=O)N(CCc2c[nH]c3ccccc23)CCN1C(=O)[C@@H](Cc1ccc(Cl)cc1)NC(=O)[C@@H](N)COCc1ccc(Cl)cc1 [Example 15]	94	90	64	81				
NCCCC[C@H]1C(=O)N2C(CC[C@@H]2COc2ccc3ccccc3c2)N1C(=O)[C@@H](Cc1ccccc1Cl)NC(=O)[C@@H]1C[C@H](Oc2ccc3ccccc3c2)CN1 (stereo partly shown) [Example 91]	0	17	0	21				
N[C@H](Cc1ccc(Cl)cc1Cl)C(=O)N1CCN(CCc2ccc3ccccc3c2)C(=O)[C@@H]1CCCNc1cc[nH]n1 [Example 69]	3	12	8	20				
NCCCC[C@H]1C(=O)N(CCc2ccccc2)CCN1C(=O)[C@@H](Cc1ccc(Cl)cc1)NC(=O)[C@@H](N)COCc1ccccc1 [Example 12]	40	14	39	46				
N[C@H](Cc1ccc(Cl)cc1Cl)C(=O)N1CCN(CCc2ccc3ccccc3c2)C(=O)[C@@H]1CCCCNC(=O)c1cccnc1 [Example 60]	23	13	6	4				
[2H]N[C@@H](Cc1cnc[nH]1)C(=O)N[C@@H](Cc1ccccc1)C(=O)N1CC2C[C@H](Oc3ccc4ccccc4c3)CN2C(=O)[C@@H]1CCCCN (stereo partly shown) [Example 179]					0	0	0	0
NCCCNC(=O)C1CC(OCc2ccccc2)CN1C(=O)C(Cc1ccccc1)NC(=O)C1NCCc2ccccc21 (stereo not shown) [Example 160]	5	0	36	1				
Cc1ccc(CCN2CCN(C(=O)[C@H](N)Cc3ccc(Cl)cc3Cl)[C@@H](CCCNC(=N)N)C2=O)cc1 [Example 126]	78	34	42	11				
NC(=O)NCCCC[C@H]1C(=O)N(CCc2ccc3ccccc3c2)CCN1C(=O)[C@H](N)Cc1ccc(Cl)cc1Cl [Example 66]	49	14	15	43				
NCCCC[C@H]1C(=O)N2C(CC[C@@H]2COc2ccc3c(c2)CCCC3)N1C(=O)[C@@H](Cc1ccc(Cl)cc1)NC(=O)[C@@H](N)COCc1ccccc1 (stereo partly shown) [Example 109]	78	56	4	93				
CC(C)NC(=N)NCCCC1C(=O)N(CCc2ccc3ccccc3c2)CCN1C(=O)C(N)Cc1ccc(Cl)cc1Cl (stereo not shown) [Example 75]	85	28	40	37				
NCCCNC(=O)[C@@H]1C[C@@H](OCc2ccccc2)CN1C(=O)[C@@H](Cc1ccccc1)NC(=O)[C@@H]1Cc2ccccc2N1 [Example 172]	4	0	0	14				
N=C(N)NCCCC[C@H]1C(=O)N(CCc2ccc3ccccc3c2)CCN1C(=O)[C@H](N)Cc1ccc2ccccc2c1 [Example 71]	97	57	73	60				
NCCCNC(=O)C1CC(OCc2ccccc2)CN1C(=O)C(Cc1ccccc1)NC(=O)C1CCC(=O)N1C(=O)OCc1ccccc1 (stereo not shown) [Example 177]	7	0	0	2				
N[C@H](Cc1ccc(Cl)cc1Cl)C(=O)N1CCN(CCc2ccc3ccccc3c2)C(=O)[C@@H]1CCCNc1nncs1 [Example 70]	70	32	31	28				
NCCCC[C@H]1C(=O)N2C(CC[C@@H]2COc2ccc3ccccc3c2)N1C(=O)[C@@H](Cc1ccc(Cl)cc1)NC(=O)[C@@H](N)COCc1ccccc1 (stereo partly shown) [Example 79]	81	86	14	90				

Compound	Inhibition at 1 μM MC4-R (MC4-R) [%]	Inhibition at 1 μM MC5-R (MC5-R) [%]	Inhibition at 1 μM MC3-R (MC3-R) [%]	Inhibition at 1 μM MC1-R [1] [%]	inhibition at 1 µM (MC4-R) [%]	inhibition at 1 µM (MC5-R) [%]	inhibition at 1 µM (MC3-R) [%]	inhibition at 1 µM [1] [%]
CNC(=N)NCCC[C@H]1C(=O)N(CCc2ccc3ccccc3c2)CCN1C(=O)[C@H](N)Cc1ccc(Cl)cc1Cl [Example 72]	93	27	43	19				
N[C@H](Cc1ccc(Cl)cc1Cl)C(=O)N1CCN(CCc2ccc3ccccc3c2)C(=O)[C@@H]1CCCCNC=O [Example 64]	30	6	0	8				
N=C(N)NCCC[C@H]1C(=O)N(CCc2ccc3ccccc3c2)CCN1C(=O)[C@H](N)Cc1ccccc1Cl [Example 122]	69	5	2	3				
NCC[C@H]1C(=O)N(CCc2ccc3ccccc3c2)CCN1C(=O)[C@H](N)Cc1ccc(Cl)cc1Cl [Example 54]	55	23	11	28				
NCCCC[C@H]1C(=O)N(CCOc2ccc3ccccc3c2)CCN1C(=O)[C@@H](Cc1ccc(Cl)cc1)NC(=O)[C@@H]1Cc2ccccc2CN1 [Example 30]	88	65	35	88				
NCCCNC(=O)[C@@H]1C[C@@H](OCc2ccccc2)CN1C(=O)[C@@H](Cc1ccccc1)NC(=O)[C@H](Cc1cnc[nH]1)NC(=O)CC1CCCCC1 [Example 142]	0	12	3	85				
N[C@H](Cc1ccc(Cl)cc1Cl)C(=O)N1CCN(CCc2ccc3ccccc3c2)C(=O)[C@@H]1CCCCNC(=O)c1ccc(O)cc1 [Example 61]	12	26	6	3				
NCCCC[C@H]1C(=O)N(CCc2ccccc2)CCN1C(=O)[C@@H](Cc1ccc(Cl)cc1)NC(=O)[C@@H]1Cc2ccccc2CN1 [Example 13]	66	16	21	68				
N=C(N)NCCC[C@H]1C(=O)N(CCc2ccc3ccccc3c2)CCN1C(=O)[C@H](N)Cc1ccc(Cl)cc1 [Example 123]	87	29	38	34				
CCCCCCC(=O)N[C@@H](COCc1ccccc1)C(=O)N[C@H](Cc1ccccc1Cl)C(=O)N1CCN(CCc2c[nH]c3ccccc23)C(=O)[C@@H]1CCCCN [Example 11]	99	82	51	96				
N[C@@H](COCc1ccccc1)C(=O)N[C@H](Cc1ccc(Cl)cc1Cl)C(=O)N1CCN(CCc2ccc3ccccc3c2)C(=O)[C@@H]1CCCNS(N)(=O)=O [Example 46]	60	25	12	0				
[2H]N1CCCC1C(=O)NC(Cc1ccccc1)C(=O)N1CC(OCc2ccccc2)CC1C(=O)NCCCN (stereo not shown) [Example 167]	8	5	0	22				
COC(=O)NCCC[C@H]1C(=O)N(CCc2ccc3ccccc3c2)CCN1C(=O)[C@@H](Cc1ccc(Cl)cc1Cl)NC(=O)[C@@H](N)COCc1ccccc1 [Example 43]	43	20	0	1				
NCCCNC(=O)[C@@H]1C[C@@H](OCc2ccccc2)CN1C(=O)[C@@H](Cc1ccccc1)NC(=O)[C@@H](N)Cc1cccc2ccccc12 [Example 165]	16	0	2	0				
NCCCNC(=O)C1CC(OCc2ccccc2)CN1C(=O)C(Cc1ccccc1)NC(=O)C1NCCc2ccccc21 (stereo not shown) [Example 159]	1	0	14	0				
[2H]N[C@@H](Cc1cnc[nH]1)C(=O)N[C@@H](Cc1ccccc1)C(=O)N1C2CC[C@H](COc3ccc4ccccc4c3)N2C(=O)[C@@H]1CCCCN (stereo partly shown) [Example 111]					10		9	94
